Experimental data from patent publication US12215354B2, “Differentiation of human embryonic stem cells into single hormonal insulin positive cells” (Janssen Biotech, Inc., priority 2011, dated 2025).

Test system: human embryonic stem cell line H1
Test: Immune staining for insulin, glucagon and somatostatin hormones at end of stage 5 (Example 13)
Type: cell-based
Settings: percentage of the entire hormone count at S5 day 3
Procedure: Cells of the human embryonic stem cell line H1 at various passages (passage 40 to passage 52) were seeded as single cells at a density of 100,000 cells/cm^2 on MATRIGEL™ (1:30 dilution) coated dishes in mTesr™1 media and 10 μM of Y27632. Forty eight hours post seeding, cultures were differentiated into pancreatic endocrine lineage as follows: • a. Stage 1 (Definitive Endoderm (DE)−3 days): Prior to start of DE, the cultures were washed and incubated with incomplete PBS (no Mg or Ca) for 30 seconds followed by addition of the stage 1 media. Human embryonic stem cells cultured as single cells on MATRIGEL™-coated dishes were treated with MCDB-131 medium supplemented with 0.1% fatty acid-free BSA, 0.0012 g/ml sodium bicarbonate, 1× GLUTAMAX™, 5 mM D-Glucose, 100 ng/ml GDF8, 1 μM MCX compound (GSK3B inhibitor) for one day. Cells were then treated with MCDB-131 medium supplemented with 0.1% fatty acid-free BSA, sodium bicarbonate, GLUTAMAX™, extra 5 mM glucose, 100 ng/ml GDF8, and 100 nM MCX compound for day two followed by an additional day in MCDB-131 medium supplemented with 0.1% fatty acid-free BSA, 0.0012 g/ml sodium bicarbonate, 1× GLUTAMAX™, 5 mM Glucose, and 100 ng/ml GDF8. • b. Stage 2 (Primitive gut tube−2 days): Cells were treated with MCDB-131 medium supplemented with 0.1% fatty acid-free BSA, 0.0012 g/ml sodium bicarbonate, 1× GLUTAMAX™, 5 mM D-Glucose, 0.25 mM ascorbic acid, and 25 ng/ml FGF7 and for two days, then • MCDB131supplemented with 1:200 dilution of ITS-X, 2.5 mM Glucose, 1× GLUTAMAX™, 0.0015 g/ml sodium bicarbonate, 2% fatty acid-free BSA, 10 ng/ml Activin A, 25 ng/ml FGF7, 0.25 mM ascorbic acid, 0.25 μM SANT-1, 1 μM RA, 200 nM TPB, 100 nM LDN-193189 for day 1, followed by treatment with tMCDB131supplemented with 1:200 dilution of ITS-X, 2.5 mM Glucose, 1× GLUTAMAX™, 0.0015 g/ml sodium bicarbonate, 2% fatty acid-free BSA, 10 ng/ml Activin A, 25 ng/ml FGF7, 0.25 mM ascorbic acid, 0.25 μMSANT-1, 1 μM RA, 200 nM TPB, 10 nM LDN-193189 for an additional day. • d. […]

## O=C1O[C@H]([C@@H](O)CO)C(O)=C1O [ascorbic acid]
Treatment at S5
  % Polyhormonal: 44%
  % glucagon + plus % somatostatin+: 44%
Treatment at S5 (0.1 mM ascorbic acid, 50 nM RA, 0.25 μM SANT-1, 1 μM Alk5 inh)
  % single hormonal Insulin+: 12%
